From patent US9242958B2, “Substituted pyridazine carboxamide compounds as kinase inhibitor compounds” (Xcovery Holding Company LLC, priority 2010, dated 2016)
Marks after values point to notes of the source that are not given here.

How the values were obtained:
c-Met = target: T1, c-Met (Homo sapiens, UniProt P08581); experiment: Kinase binding assay (Met biochemical assay, affinity beads/qPCR)
T1 construct: T7 phage fusion (kinase-tagged T7 phage), or alternatively a DNA tag for qPCR; made in house; host or cells: E. coli BL21-derived host (T7 phage display) or HEK-293 cells
Procedure: (§1) Met, ALK Biochemical Assays
(§2) Kinase Assays. […] 23, p. […] 26, p.
(§3) For most assays, kinase-tagged T7 phage strains were grown in parallel in 24-well blocks in an E. coli host derived from the BL21 strain. E. coli were grown to log-phase and infected with T7 phage from a frozen stock (multiplicity of infection ˜0.1) and incubated with shaking at 32° C. until lysis (˜90 minutes). The lysates were centrifuged (6,000×g) and filtered ([…]) to remove cell debris. The remaining kinases were produced in HEK-293 cells and subsequently tagged with DNA for qPCR detection. […] The liganded beads were blocked with excess biotin and washed with blocking buffer (SeaBlock (Pierce), 1% BSA, 0.05% Tween 20, 1 mM DTT) to remove unbound ligand and to reduce non-specific phage binding. […] Test compounds were prepared as 40× stocks in 100% DMSO and directly diluted into the assay. All reactions were performed in polypropylene 384-well plates in a final volume of 0.04 ml. […] The kinase concentration in the eluates was measured by qPCR.

ALK = target: T2, ALK (Homo sapiens, UniProt Q9UM73); experiment: Kinase binding assay (ALK biochemical assay, affinity beads/qPCR)
T2 construct: T7 phage fusion (kinase-tagged T7 phage), or alternatively a DNA tag for qPCR; made in house; host or cells: E. coli BL21-derived host (T7 phage display) or HEK-293 cells
Procedure: as §1, §2, §3

U-87 MG xenograft tumor = experiment: In vivo anti-tumor efficacy against U-87MG tumor xenograft model; design: species or system Balb/c nude mice
Procedure: In Vivo Anti-Tumor Efficacy of Compound 1 of EXAMPLE 1 Against U-87MG Tumor Xenograft Model
Balb/c nude mice (6 weeks old, male) were purchased from Shanghai Slac Laboratory Animal Co. Ltd (Shanghai, China). All mice were maintained in a pathogen-free facility for ˜2 weeks before implantation. They were housed in plastic cages (4˜6 mice/cage) containing corn cob and maintained in a pathogen-free facility (20˜25° C., 30˜70% humidity) with a 12-h light:dark cycle.
U-87 MG xenograft model was established by implanting athymic Balb/c nude mice s.c in the right flank with U-87 MG cells, 3.6×10^6/mouse (120 ul). Tumors were allowed to reach 120˜380 mm^3 in size.
Tumor volumes were measured twice a week with caliper. Tumor volumes were calculated by the formula <Tumor volume=length×width^2/2>.
Percentage of tumor growth inhibition (GI) after initiation of treatment was calculated by the formula: GI=100×{1−[(tumor volumefinal−tumor volumeinitial for the compound-treated group)/(tumor volumefinal−tumor volumeinitial for the vehicle-treated group)]} Relative tumor volume is defined as the ratio of the volume at a given time and the volume at the start of treatment. The relative tumor volume (RTV) was calculated by the formula: RTV=100×TVT/TV0

[1] = 25 mg/kg ig BID, d28 post implantation
[2] = 25 mg/kg ig BID, d31 post implantation
[3] = 50 mg/kg ig BID, d28 post implantation
[4] = 50 mg/kg ig BID, d31 post implantation

T2 sequence (Q9UM73 19-1620): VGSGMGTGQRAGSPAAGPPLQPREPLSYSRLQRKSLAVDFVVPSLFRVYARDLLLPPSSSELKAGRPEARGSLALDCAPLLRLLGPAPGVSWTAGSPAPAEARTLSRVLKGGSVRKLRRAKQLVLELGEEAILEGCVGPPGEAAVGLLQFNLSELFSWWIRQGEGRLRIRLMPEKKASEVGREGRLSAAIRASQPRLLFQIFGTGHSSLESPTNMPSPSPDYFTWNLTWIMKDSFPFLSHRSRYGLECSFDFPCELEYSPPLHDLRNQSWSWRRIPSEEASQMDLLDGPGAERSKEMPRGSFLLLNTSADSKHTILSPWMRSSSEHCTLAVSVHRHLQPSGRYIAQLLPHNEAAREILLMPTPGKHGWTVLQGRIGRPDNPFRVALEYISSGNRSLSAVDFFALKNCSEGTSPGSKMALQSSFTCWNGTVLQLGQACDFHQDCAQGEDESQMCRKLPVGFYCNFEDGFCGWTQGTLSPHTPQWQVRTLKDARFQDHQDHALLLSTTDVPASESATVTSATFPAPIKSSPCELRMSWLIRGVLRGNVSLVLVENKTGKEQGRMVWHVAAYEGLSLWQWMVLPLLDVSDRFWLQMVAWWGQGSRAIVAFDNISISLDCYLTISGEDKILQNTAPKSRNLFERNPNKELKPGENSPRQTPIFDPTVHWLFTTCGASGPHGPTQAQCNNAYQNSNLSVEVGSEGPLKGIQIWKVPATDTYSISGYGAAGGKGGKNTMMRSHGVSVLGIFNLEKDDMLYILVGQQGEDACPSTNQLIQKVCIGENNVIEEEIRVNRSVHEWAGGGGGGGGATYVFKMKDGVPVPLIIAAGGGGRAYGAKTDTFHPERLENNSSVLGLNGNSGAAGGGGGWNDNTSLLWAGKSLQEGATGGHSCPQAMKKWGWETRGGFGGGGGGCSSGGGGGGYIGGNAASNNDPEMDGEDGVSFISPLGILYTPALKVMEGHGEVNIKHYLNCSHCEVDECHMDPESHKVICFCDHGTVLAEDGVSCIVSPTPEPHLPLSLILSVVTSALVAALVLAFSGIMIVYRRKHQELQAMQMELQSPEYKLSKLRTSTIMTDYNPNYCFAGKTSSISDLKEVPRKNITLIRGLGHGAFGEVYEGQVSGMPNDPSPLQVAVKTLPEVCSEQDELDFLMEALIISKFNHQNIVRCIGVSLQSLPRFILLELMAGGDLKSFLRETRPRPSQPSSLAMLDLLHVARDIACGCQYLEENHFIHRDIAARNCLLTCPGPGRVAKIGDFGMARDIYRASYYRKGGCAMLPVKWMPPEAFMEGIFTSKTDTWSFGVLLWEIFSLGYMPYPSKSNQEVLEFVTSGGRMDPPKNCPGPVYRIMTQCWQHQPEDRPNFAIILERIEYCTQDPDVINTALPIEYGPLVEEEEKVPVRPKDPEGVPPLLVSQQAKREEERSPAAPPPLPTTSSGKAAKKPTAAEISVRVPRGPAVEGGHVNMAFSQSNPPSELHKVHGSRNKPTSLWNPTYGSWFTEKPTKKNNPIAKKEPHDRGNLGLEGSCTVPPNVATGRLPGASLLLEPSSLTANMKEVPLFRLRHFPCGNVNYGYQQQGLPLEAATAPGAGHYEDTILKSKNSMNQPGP
T1 sequence (P08581 25-1390): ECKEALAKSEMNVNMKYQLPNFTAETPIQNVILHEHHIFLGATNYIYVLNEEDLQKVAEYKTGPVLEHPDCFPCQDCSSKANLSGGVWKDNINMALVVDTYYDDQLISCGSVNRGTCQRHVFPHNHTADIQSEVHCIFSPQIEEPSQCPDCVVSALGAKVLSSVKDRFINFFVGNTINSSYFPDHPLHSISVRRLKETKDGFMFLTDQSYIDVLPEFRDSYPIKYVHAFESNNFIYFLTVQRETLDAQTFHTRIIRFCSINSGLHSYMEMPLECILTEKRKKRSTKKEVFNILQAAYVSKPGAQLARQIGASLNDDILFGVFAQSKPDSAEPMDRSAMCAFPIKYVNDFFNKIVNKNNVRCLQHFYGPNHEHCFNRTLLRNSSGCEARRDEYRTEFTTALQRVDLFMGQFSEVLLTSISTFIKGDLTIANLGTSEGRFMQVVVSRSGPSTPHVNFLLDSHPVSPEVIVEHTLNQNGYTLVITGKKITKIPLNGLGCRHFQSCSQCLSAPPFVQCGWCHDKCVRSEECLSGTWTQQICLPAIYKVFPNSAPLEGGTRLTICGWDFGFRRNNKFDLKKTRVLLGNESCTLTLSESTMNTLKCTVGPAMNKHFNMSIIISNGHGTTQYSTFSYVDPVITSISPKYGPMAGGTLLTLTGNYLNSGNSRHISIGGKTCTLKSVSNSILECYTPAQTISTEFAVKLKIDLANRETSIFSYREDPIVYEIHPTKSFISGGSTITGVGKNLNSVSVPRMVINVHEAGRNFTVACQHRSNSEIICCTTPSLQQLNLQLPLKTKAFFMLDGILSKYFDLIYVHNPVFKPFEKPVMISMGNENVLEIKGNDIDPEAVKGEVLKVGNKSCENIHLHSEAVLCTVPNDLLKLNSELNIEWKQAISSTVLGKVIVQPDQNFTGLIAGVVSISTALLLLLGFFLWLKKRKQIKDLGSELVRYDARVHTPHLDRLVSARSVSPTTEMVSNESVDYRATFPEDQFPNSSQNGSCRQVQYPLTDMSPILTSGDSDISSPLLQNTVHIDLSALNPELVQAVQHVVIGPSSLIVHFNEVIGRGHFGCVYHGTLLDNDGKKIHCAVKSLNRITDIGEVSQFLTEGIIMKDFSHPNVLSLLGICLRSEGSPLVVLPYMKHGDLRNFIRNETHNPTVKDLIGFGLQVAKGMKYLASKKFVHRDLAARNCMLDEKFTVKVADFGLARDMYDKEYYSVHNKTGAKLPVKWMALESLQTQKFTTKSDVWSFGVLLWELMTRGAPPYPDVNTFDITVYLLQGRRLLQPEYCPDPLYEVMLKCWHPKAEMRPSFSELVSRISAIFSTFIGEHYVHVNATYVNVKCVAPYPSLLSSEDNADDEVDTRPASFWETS

CC(Oc1cc(C(=O)Nc2ccc(=O)[nH]c2)nnc1N)c1c(Cl)ccc(F)c1Cl (racemic) [Example 5, {6-amino-5-[(2,6-dichloro-3-fluorophenyl)ethoxy]pyridazin-3-yl}-N-(6-oxo-1,6-dihydro-pyridin-3-yl)carboxamide]
IC50 (c-Met): < 5 nM
IC50 (ALK): > 10 nM

COCCn1cc(NC(=O)c2cc(OC(C)c3c(Cl)ccc(F)c3Cl)c(N)nn2)ccc1=O (racemic) [Example 6, {6-amino-5-[(2,6-dichloro-3-fluorophenyl)ethoxy]pyridazin-3-yl}-N-[1-(2-methoxyethyl)-6-oxo-1,6-dihydro-pyridin-3-yl]carboxamide]
IC50 (c-Met): < 5 nM
IC50 (ALK): > 10 nM

CCn1cc(NC(=O)c2cc(OC(C)c3c(Cl)ccc(F)c3Cl)c(N)nn2)ccc1=O (racemic) [Example 7, {6-amino-5-[(2,6-dichloro-3-fluorophenyl)ethoxy]pyridazin-3-yl}-N-(1-ethyl-6-oxo-1,6-dihydro-pyridin-3-yl)carboxamide]
IC50 (c-Met): < 5 nM
IC50 (ALK): > 10 nM

C[C@@H](Oc1cc(C(=O)Nc2ccc(=O)n(C)c2)nnc1N)c1c(Cl)ccc(F)c1Cl [Example 1, {5-[(1R)-1-(2,6-dichloro-3-fluorophenyl)ethoxy]-6-aminopyridazin-3-yl}-N-(1-methyl-6-oxo-1,6-dihydro-pyridin-3-yl)carboxamide]
IC50 (c-Met): < 5 nM
IC50 (ALK): > 10 nM
tumor volume (mean ± S.E) (U-87 MG xenograft tumor; 25 mg/kg ig BID, d24 post implantation (start of treatment)): 230.4 ± 23.0 mm^3
tumor growth inhibition GI (U-87 MG xenograft tumor; [1]): 62.14%
tumor volume (mean ± S.E) (U-87 MG xenograft tumor; [1]): 365.7 ± 29.3** mm^3
tumor growth inhibition GI (U-87 MG xenograft tumor; [2]): 77.04%
tumor volume (mean ± S.E) (U-87 MG xenograft tumor; [2]): 453.7 ± 19.7** mm^3
tumor volume (mean ± S.E) (U-87 MG xenograft tumor; 25 mg/kg ig BID, d35 post implantation): 627.7 ± 33.9** mm^3
tumor growth inhibition GI (U-87 MG xenograft tumor; 25 mg/kg ig BID, d35 post implantation (after 11 days of treatment)): 65.95%
tumor volume (mean ± S.E) (U-87 MG xenograft tumor; 50 mg/kg ig BID, d24 post implantation (start of treatment)): 230.2 ± 24.5 mm^3
tumor growth inhibition GI (U-87 MG xenograft tumor; [3]): 78.82%
tumor volume (mean ± S.E) (U-87 MG xenograft tumor; [3]): 305.9 ± 22.0** mm^3
tumor growth inhibition GI (U-87 MG xenograft tumor; [4]): 85.52%
tumor volume (mean ± S.E) (U-87 MG xenograft tumor; [4]): 337.4 ± 27.8** mm^3
tumor volume (mean ± S.E) (U-87 MG xenograft tumor; 50 mg/kg ig BID, d35 post implantation): 371.5 ± 34.4** mm^3
tumor growth inhibition GI (U-87 MG xenograft tumor; 50 mg/kg ig BID, d35 post implantation (after 11 days of treatment)): 88.71%

CC(Oc1cc(C(=O)NC2CCC(=O)N(C)C2)nnc1N)c1c(Cl)ccc(F)c1Cl (centres unmarked) [Example 4]
IC50 (c-Met): > 100 nM
IC50 (ALK): > 100 nM

C[C@@H](Oc1cc(C(=O)Nc2ccc(C(=O)N3CCN(C)CC3)cc2)nnc1N)c1c(Cl)ccc(F)c1Cl [reference compound]
IC50 (c-Met): < 5 nM
IC50 (ALK): < 5 nM
